Test results as given in US20060079453A1, “Hla binding peptides and their uses” (priority 2002, published 2006).
No end group written: not given here.

Key:
Test in all cases: biochemical
Assay type in all cases: binding
HLA-DR DRB1*0401 (DR4) = HLA-DR DRB1*0401 (DR4) (Homo sapiens, UniProt P01903+P01911, A100K/A169T/F76Y/I96L/K127E/L162R/M171V/N62H/P40V/Q125Y/R42H/S133A/S149N/S66Y/V115G/V209L/W38E); conditions: DRB1 *0401
HLA-DR DRB4*0101 (DR53) = HLA-DR DRB4*0101 (DR53) (Homo sapiens, UniProt P01903+P13762, G164S); conditions: DRB4 *0101
HLA-DR DRB5*0101 (DR51) = HLA-DR DRB5*0101 (DR51) (Homo sapiens, UniProt P01903+Q30154); conditions: DRB5 *0101
HLA-DR DRB1*1302 (DR13) = HLA-DR DRB1*1302 (DR13) (Homo sapiens, UniProt P01903+P01911, A100E/A169T/K41T/L162R/M171V/P40S/Q125H/Q178H/Q39Y/Q99D/R42S/S66N/T262R/V115G/W38E/Y61H); conditions: DRBI *1302
HLA-DR DRB1*1302 (DR13), sequence (P01903 26-254 limits assumed, other chains not shown): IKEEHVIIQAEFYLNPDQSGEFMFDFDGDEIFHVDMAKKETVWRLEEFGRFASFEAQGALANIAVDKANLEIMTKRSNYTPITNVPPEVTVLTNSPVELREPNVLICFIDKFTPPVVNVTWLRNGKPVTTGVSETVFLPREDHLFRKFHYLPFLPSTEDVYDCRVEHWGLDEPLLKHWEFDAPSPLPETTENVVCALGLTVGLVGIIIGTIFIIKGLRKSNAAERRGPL

HLA-DR DRB3*0101 (DR52) = HLA-DR DRB3*0101 (DR52) (Homo sapiens, UniProt P01903+P79483)
HLA-DR DRB1*0301 (DR3) = HLA-DR DRB1*0301 (DR3) (Homo sapiens, UniProt P01903+P01911, A100K/A102G/A103R/A169T/F55Y/I96L/K41T/L162R/M171V/P40S/Q125H/Q178H/Q39Y/R42S/S66N/T106N/T262R/W38E/Y61H)
HLA-DR DRB1*0301 (DR3), sequence (P01903 26-254 limits assumed, other chains not shown): as above

HLA-DR DRB1*0802 (DR8) = HLA-DR DRB1*0802 (DR8) (Homo sapiens, UniProt P01903+P01911, A100R/A103L/A169T/F76Y/H45Y/I96F/K41T/L162R/M171V/P40S/Q125H/Q178H/Q39Y/Q99D/R218S/R42G/S66Y/V115G/W38E)
HLA-DR DRB1*0101 (DR1) = HLA-DR DRB1*0101 (DR1) (Homo sapiens, UniProt P01903+P01911, A100R/D57E/F55L/F60I/F76Y/I96L/L162R/M171V/P40L/Q125E/R42F/V115G/Y59C); conditions: DRB1 *0101
HLA-DR DRB1*1501 (DR15) = HLA-DR DRB1*1501 (DR15) (Homo sapiens, UniProt P01903+P01911); conditions: DRBI *1501
HLA-DR DRB1*0901 (DR9) = HLA-DR DRB1*0901 (DR9) (Homo sapiens, UniProt P01903+P01911, A100R/A103E/D57H/D86V/F55Y/F60I/F76Y/I96F/K127E/L162R/M171V/P40D/Q125H/Q99R/R33Q/R42F/S133A/S66N/T210M/V115G/W38K/Y107V/Y59G/Y89S); conditions: DRB1 *0901
HLA-DR DRB1*1101 (DR11) = HLA-DR DRB1*1101 (DR11) (Homo sapiens, UniProt P01903+P01911, A100R/A169T/A87E/I96F/K41T/L162R/M171V/P40S/Q125H/Q178H/Q39Y/Q99D/R42S/S66Y/T262R/V115G/W38E); conditions: DRB1 *1101
HLA-DR DRB1*1101 (DR11), sequence (P01903 26-254 limits assumed, other chains not shown): as above

HLA-DR DRB1*0701 (DR7) = HLA-DR DRB1*0701 (DR7) (Homo sapiens, UniProt P01903+P01911, A100R/A102G/A103Q/D57E/D86V/E43K/F76Y/K127E/L162R/M171V/P40G/Q125H/Q99D/R33Q/R42Y/R54Q/S133A/S66F/T210M/V115G/Y107V/Y59L/Y89S); conditions: DRB1 *0701

Compound: CC(C)C[C@H](NC(=O)[C@H](CCC(=O)O)NC(=O)[C@H](CCCCN)NC(=O)[C@H](C)N)C(=O)N[C@@H](CCCCN)C(=O)N[C@@H](Cc1ccccc1)C(=O)N[C@H](C(=O)N[C@H](C(=O)N[C@@H](CC(C)C)C(=O)N[C@H](C(=O)N[C@@H](Cc1ccccc1)C(=O)N[C@@H](CCCNC(=N)N)C(=O)N[C@@H](Cc1c[nH]cn1)C(=O)NCC(=O)N[C@@H](CC(=O)O)C(=O)O)C(C)C)[C@@H](C)O)C(C)C
- IC50 (HLA-DR DRB1*0401 (DR4)): 0.783 µM
- IC50 (HLA-DR DRB4*0101 (DR53)): 0.051 µM
- IC50 (HLA-DR DRB5*0101 (DR51)): 0.024 µM
- IC50 (HLA-DR DRB1*1302 (DR13)): 0.824 µM
- IC50 (HLA-DR DRB3*0101 (DR52)): 8.56 µM
- IC50 (HLA-DR DRB1*0301 (DR3)): 30 µM
- IC50 (HLA-DR DRB1*0802 (DR8)): 1.95 µM

Compound: CC(C)C[C@H](NC(=O)[C@@H](NC(=O)CN)C(C)C)C(=O)N[C@H](C(=O)N[C@@H](Cc1c[nH]cn1)C(=O)N1CCC[C@H]1C(=O)N[C@@H](CCC(N)=O)C(=O)N[C@@H](Cc1c[nH]c2ccccc12)C(=O)N[C@H](C(=O)N[C@@H](CC(C)C)C(=O)N[C@H](C(=O)N[C@@H](C)C(=O)N[C@@H](C)C(=O)N[C@@H](Cc1c[nH]cn1)C(=O)N[C@@H](CS)C(=O)O)[C@@H](C)O)C(C)C)C(C)C
- IC50 (HLA-DR DRB1*0101 (DR1)): 0.087 µM
- IC50 (HLA-DR DRB1*0401 (DR4)): 0.067 µM
- IC50 (HLA-DR DRB1*1501 (DR15)): 0.066 µM
- IC50 (HLA-DR DRB4*0101 (DR53)): 0.0062 µM
- IC50 (HLA-DR DRB1*1302 (DR13)): 2.43 µM
- IC50 (HLA-DR DRB3*0101 (DR52)): > 10.7 µM
- IC50 (HLA-DR DRB1*0301 (DR3)): 21.3 µM
- IC50 (HLA-DR DRB1*0802 (DR8)): 1.93 µM

Compound: CC[C@H](C)[C@H](N)C(=O)N[C@@H](CC(C)C)C(=O)N[C@@H](CC(C)C)C(=O)N[C@@H](Cc1c[nH]c2ccccc12)C(=O)N[C@@H](CCC(N)=O)C(=O)N1CCC[C@H]1C(=O)N[C@H](C(=O)N1CCC[C@H]1C(=O)N[C@H](C(=O)N[C@@H](Cc1c[nH]cn1)C(=O)N[C@H](C(=O)N[C@H](C(=O)N1CCC[C@H]1C(=O)N[C@@H](CC(C)C)C(=O)N[C@@H](CO)C(=O)O)C(C)C)[C@@H](C)O)C(C)C)[C@@H](C)CC
- IC50 (HLA-DR DRB1*0901 (DR9)): 0.131 µM
- IC50 (HLA-DR DRB1*0101 (DR1)): 0.045 µM
- IC50 (HLA-DR DRB1*0401 (DR4)): 0.17 µM
- IC50 (HLA-DR DRB1*1501 (DR15)): 0.065 µM
- IC50 (HLA-DR DRB4*0101 (DR53)): 0.712 µM
- IC50 (HLA-DR DRB1*1101 (DR11)): 2.34 µM
- IC50 (HLA-DR DRB5*0101 (DR51)): 28.8 µM
- IC50 (HLA-DR DRB1*1302 (DR13)): 1.11 µM
- IC50 (HLA-DR DRB1*0701 (DR7)): 0.019 µM
- IC50 (HLA-DR DRB3*0101 (DR52)): > 8.83 µM
- IC50 (HLA-DR DRB1*0301 (DR3)): > 81.8 µM

Compound: CC[C@H](C)[C@H](N)C(=O)N[C@@H](Cc1ccc(O)cc1)C(=O)N[C@@H](CO)C(=O)N[C@H](C(=O)N[C@@H](CO)C(=O)N[C@@H](CCSC)C(=O)N[C@@H](CCCCN)C(=O)N[C@@H](Cc1c[nH]cn1)C(=O)N1CCC[C@H]1C(=O)N[C@@H](CCC(N)=O)C(=O)N[C@@H](CCC(=O)O)C(=O)N[C@@H](CCSC)C(=O)N[C@@H](CCCCN)C(=O)N[C@H](C(=O)N[C@@H](Cc1ccc(O)cc1)C(=O)O)[C@@H](C)O)[C@@H](C)CC
- IC50 (HLA-DR DRB1*0101 (DR1)): 8.45 µM
- IC50 (HLA-DR DRB1*0401 (DR4)): 16 µM
- IC50 (HLA-DR DRB4*0101 (DR53)): 5.36 µM
- IC50 (HLA-DR DRB1*1101 (DR11)): 0.213 µM
- IC50 (HLA-DR DRB5*0101 (DR51)): 2.59 µM
- IC50 (HLA-DR DRB1*1302 (DR13)): > 35 µM
- IC50 (HLA-DR DRB3*0101 (DR52)): > 21.9 µM
- IC50 (HLA-DR DRB1*0802 (DR8)): 1.36 µM

Compound: CC[C@H](C)[C@H](NC(=O)CNC(=O)[C@H](Cc1ccc(O)cc1)NC(=O)[C@H](CC(C)C)NC(=O)[C@H](CO)NC(=O)[C@H](CC(C)C)NC(=O)[C@H](CC(C)C)NC(=O)[C@H](CO)NC(=O)[C@H](CC(C)C)NC(=O)[C@H](CCC(=O)O)NC(=O)[C@H](CO)NC(=O)[C@H](CC(C)C)NC(=O)[C@H](CCC(=O)O)NC(=O)[C@H](CCCNC(=N)N)NC(=O)[C@@H](N)CC(C)C)C(=O)O
- IC50 (HLA-DR DRB1*0101 (DR1)): 0.655 µM
- IC50 (HLA-DR DRB1*0401 (DR4)): 0.371 µM
- IC50 (HLA-DR DRB1*1501 (DR15)): 0.235 µM
- IC50 (HLA-DR DRB4*0101 (DR53)): 0.544 µM
- IC50 (HLA-DR DRB1*1101 (DR11)): 6.96 µM
- IC50 (HLA-DR DRB5*0101 (DR51)): 5.18 µM
- IC50 (HLA-DR DRB1*1302 (DR13)): 3.22 µM
- IC50 (HLA-DR DRB1*0701 (DR7)): 4.01 µM
- IC50 (HLA-DR DRB3*0101 (DR52)): > 15 µM
- IC50 (HLA-DR DRB1*0802 (DR8)): 9.37 µM

Compound: ADKIYSISMKHPQEM
- IC50 (HLA-DR DRB1*0401 (DR4)): 5.31 µM
- IC50 (HLA-DR DRB1*1501 (DR15)): 8.27 µM
- IC50 (HLA-DR DRB4*0101 (DR53)): 3.55 µM
- IC50 (HLA-DR DRB1*1302 (DR13)): 4.96 µM
- IC50 (HLA-DR DRB1*0701 (DR7)): 4.1 µM
- IC50 (HLA-DR DRB3*0101 (DR52)): > 21.9 µM
- IC50 (HLA-DR DRB1*0802 (DR8)): 1.14 µM

Compound: GNEIFNTSLFEPPPP
- IC50 (HLA-DR DRB1*0101 (DR1)): 20.4 µM
- IC50 (HLA-DR DRB1*0401 (DR4)): > 20 µM
- IC50 (HLA-DR DRB1*1501 (DR15)): > 91 µM
- IC50 (HLA-DR DRB4*0101 (DR53)): 0.835 µM
- IC50 (HLA-DR DRB1*1101 (DR11)): > 40 µM
- IC50 (HLA-DR DRB5*0101 (DR51)): > 200 µM
- IC50 (HLA-DR DRB1*1302 (DR13)): 2.8 µM
- IC50 (HLA-DR DRB1*0701 (DR7)): > 35.7 µM
- IC50 (HLA-DR DRB3*0101 (DR52)): > 13.2 µM
- IC50 (HLA-DR DRB1*0802 (DR8)): > 163 µM
